Data reported in ChEMBL document CHEMBL1154780, “Synthesis of new linear guanidines and macrocyclic amidinourea derivatives endowed with high antifungal activity against Candida spp. and Aspergillus spp” (J Med Chem, 2009).
In brackets after ≈: the same amount, converted by molar mass.

Assays:
Format in all cases: functional
Pichia kudriavzevii [1] = assay: Anticandidal activity against Candida krusei 193T after 24 hrs by spectrophotometry
Candida parapsilosis [2] = assay: Anticandidal activity against Candida parapsilosis 64E after 24 hrs by spectrophotometry; conditions: Lodderomyces parapsilosis
Candida parapsilosis [3] = assay: Anticandidal activity against Candida parapsilosis ATCC 34136 after 24 hrs by spectrophotometry; conditions: Lodderomyces parapsilosis, ATCC 34136, 24 h
Candida parapsilosis [4] = assay: Anticandidal activity against Candida parapsilosis 81E after 24 hrs by spectrophotometry; conditions: Lodderomyces parapsilosis
Pichia kudriavzevii [5] = assay: Anticandidal activity against Candida krusei ATCC 14243 after 24 hrs by spectrophotometry; conditions: ATCC 14243, 24 h
Nakaseomyces glabratus = assay: Anticandidal activity against Candida glabrata 70E after 24 hrs by spectrophotometry
Candida albicans [6] = assay: Anticandidal activity against Candida albicans ATCC 60193 after 24 hrs by spectrophotometry; conditions: ATCC 60193, 24 h
Candida albicans [7] = assay: Anticandidal activity against Candida albicans 15T after 24 hrs by spectrophotometry
Candida tropicalis = assay: Anticandidal activity against Candida tropicalis 86E after 24 hrs by spectrophotometry
Candida albicans [8] = assay: Anticandidal activity against Candida albicans 53T after 24 hrs by spectrophotometry
Candida albicans [9] = assay: Anticandidal activity against Candida albicans 4T after 24 hrs by spectrophotometry

SMILES	MIC (Pichia kudriavzevii [1]) [µM]	MIC (Candida parapsilosis [2]) [µM]	MIC (Candida parapsilosis [3]) [µM]	MIC (Candida parapsilosis [4]) [µM]	MIC (Pichia kudriavzevii [5]) [µM]	MIC (Nakaseomyces glabratus) [µM]	MIC (Candida albicans [6]) [µM]	MIC (Candida albicans [7]) [µM]	MIC (Candida tropicalis) [µM]	MIC (Candida albicans [8]) [µM]	MIC (Candida albicans [9]) [µM]
CC(C)=CCNC(=N)NCCCCCCCCNCCCCCCCCNC(=N)NCC=C(C)C	80 (≈ 39.3 µg/mL)	> 80	> 80	> 80	40 (≈ 19.7 µg/mL)	> 80	> 80	> 80	> 80	80 (≈ 39.3 µg/mL)	80 (≈ 39.3 µg/mL)
N=C(N)NCCCCCCCCNCCCCCCCCNC(=N)N [IMINOCTADIENE]	20 (≈ 7.11 µg/mL)	40 (≈ 14.2 µg/mL)	> 80	20 (≈ 7.11 µg/mL)	20 (≈ 7.11 µg/mL)	40 (≈ 14.2 µg/mL)	80 (≈ 28.4 µg/mL)	80 (≈ 28.4 µg/mL)	1.25 (≈ 0.444 µg/mL)	40 (≈ 14.2 µg/mL)	80 (≈ 28.4 µg/mL)
N=C(N)NCCCCCCCCN(CCCCCCCCNC(=N)N)C(=N)N	40 (≈ 15.9 µg/mL)	> 80	> 80	> 80	10 (≈ 3.98 µg/mL)	> 80	5 (≈ 1.99 µg/mL)	10 (≈ 3.98 µg/mL)	1.25 (≈ 0.497 µg/mL)	20 (≈ 7.95 µg/mL)	5 (≈ 1.99 µg/mL)
N=C(NCCCCCCCCN1CCCCCCCCNC(=N)NC1=O)NCc1ccccc1	10 (≈ 4.72 µg/mL)	20 (≈ 9.43 µg/mL)	80 (≈ 37.7 µg/mL)	20 (≈ 9.43 µg/mL)	20 (≈ 9.43 µg/mL)	40 (≈ 18.9 µg/mL)	2.5 (≈ 1.18 µg/mL)	5 (≈ 2.36 µg/mL)	2.5 (≈ 1.18 µg/mL)	2.5 (≈ 1.18 µg/mL)	2.5 (≈ 1.18 µg/mL)
OC(Cn1cncn1)(Cn1cncn1)c1ccc(F)cc1F [FLUCONAZOLE]	418 (≈ 128 µg/mL)	32 (≈ 9.8 µg/mL)	6.5 (≈ 1.99 µg/mL)	13 (≈ 3.98 µg/mL)	209 (≈ 64 µg/mL)	209 (≈ 64 µg/mL)	0.8 (≈ 0.245 µg/mL)	209 (≈ 64 µg/mL)	52 (≈ 15.9 µg/mL)	418 (≈ 128 µg/mL)	209 (≈ 64 µg/mL)
N=C(N)NCCCCCCCCNCCCCCCCCNC(=N)NCC1CC1	10 (≈ 4.1 µg/mL)	5 (≈ 2.05 µg/mL)	80 (≈ 32.8 µg/mL)	20 (≈ 8.19 µg/mL)	5 (≈ 2.05 µg/mL)	20 (≈ 8.19 µg/mL)	20 (≈ 8.19 µg/mL)	20 (≈ 8.19 µg/mL)	5 (≈ 2.05 µg/mL)	10 (≈ 4.1 µg/mL)	10 (≈ 4.1 µg/mL)
C=C(C)CNC(=N)NCCCCCCCCN1CCCCCCCCNC(=N)NC1=O	80 (≈ 34.9 µg/mL)	> 80	> 80	> 80	40 (≈ 17.4 µg/mL)	80 (≈ 34.9 µg/mL)	20 (≈ 8.71 µg/mL)	20 (≈ 8.71 µg/mL)	40 (≈ 17.4 µg/mL)	40 (≈ 17.4 µg/mL)	40 (≈ 17.4 µg/mL)
